Data from PMC7179183, “Design of Biphenyl-Substituted Diarylpyrimidines with a Cyanomethyl Linker as HIV-1 NNRTIs via a Molecular Hybridization Strategy” (Molecules, 2020).
Read-outs that look alike come from different tables or passages of the source.

How the values were obtained:
[1] = test system: L100I mutant HIV-1 strain; assay: Anti-HIV-1 activity against L100I mutant strain in MT-4 cells; type: cell-based
[2] = test system: WT HIV-1 (strain IIIB); assay: microbe, parasite or virus in culture; type: cell-based; settings: MT-4 cells, protection against virus-induced cytopathicity by 50%, mean of at least three experiments, read-out: EC50 HIV-1 IIIB
Protocol: (§1) The newly synthesized compounds were evaluated for their potency and cytotoxicity against the WT HIV-1 (strain IIIB) in MT-4 cells using the MTT method. The biological evaluation results are represented as EC50 values (anti-HIV-1 activity), CC50 values (cytotoxicity), and SI values (selectivity index, CC50/EC50 ratio).

[3] = test system: K103N mutant HIV-1 strain; assay: Anti-HIV-1 activity against K103N mutant strain in MT-4 cells; type: cell-based
[4] = test system: MT-4 cells; assay: Cytotoxicity in uninfected MT-4 cells, MTT method; type: cell-based; settings: uninfected MT-4 cells; viability reduced by 50%
Protocol: as §1

[5] = test system: K103N + Y181C double RT mutant HIV-1 strain; assay: Anti-HIV-1 activity against K103N + Y181C double mutant strain in MT-4 cells; type: cell-based
[6] = test system: Y181C mutant HIV-1 strain; assay: Anti-HIV-1 activity against Y181C mutant strain in MT-4 cells; type: cell-based
[7] = test system: F227L + V106A double RT mutant HIV-1 strain; assay: Anti-HIV-1 activity against F227L + V106A double mutant strain in MT-4 cells; type: cell-based
[8] = test system: Y188L mutant HIV-1 strain; assay: Anti-HIV-1 activity against Y188L mutant strain in MT-4 cells; type: cell-based
[9] = test system: E138K mutant HIV-1 strain; assay: Anti-HIV-1 activity against E138K mutant strain in MT-4 cells; type: cell-based
[10] = target: WT HIV-1 RT (Human immunodeficiency virus type 1 group M subtype B, UniProt P03366); assay: Enzymatic assay against WT HIV-1 RT; settings: read-out: IC50 WT HIV-1 RT polymerase activity
Protocol: The enzymatic assay against WT HIV-1 RT was conducted for most compounds (Table 2).

[11] = Cytotoxicity in uninfected MT-4 cells, MTT method; type: cell-based; settings: human
Protocol: as §1

[12] = MT-4 cells, read-out: EC50 L100I
[13] = MT-4 cells, read-out: EC50 K103N
[14] = MT-4 cells, read-out: EC50 K103N + Y181C
[15] = MT-4 cells, read-out: EC50 Y181C
[16] = MT-4 cells, read-out: EC50 F227L + V106A
[17] = MT-4 cells, read-out: EC50 Y188L
[18] = MT-4 cells, read-out: EC50 E138K

| Compound | EC50 [1, 12] [µM] | EC50 [2] [µM] | EC50 [3, 13] [µM] | CC50 [4] [µM] | EC50 [5, 14] [µM] | EC50 [6, 15] [µM] | EC50 [7, 16] [µM] | EC50 [8, 17] [µM] | EC50 [9, 18] [µM] | IC50 [10] [µM] | EC50 ([1]; Human immunodeficiency virus 1, MT4, read-out: EC50 L100I) [µM] | EC50 ([2]; Human immunodeficiency virus 1, IIIB, MT4) [µM] | EC50 ([3]; Human immunodeficiency virus 1, MT4, read-out: EC50 K103N) [µM] | CC50 [11] [µM] | EC50 ([5]; Human immunodeficiency virus 1, MT4, read-out: EC50 K103N + Y181C) [µM] | EC50 ([6]; Human immunodeficiency virus 1, MT4, read-out: EC50 Y181C) [µM] | EC50 ([7]; Human immunodeficiency virus 1, MT4, read-out: EC50 F227L + V106A) [µM] | EC50 ([8]; Human immunodeficiency virus 1, MT4, read-out: EC50 Y188L) [µM] | EC50 ([9]; Human immunodeficiency virus 1, MT4, read-out: EC50 E138K) [µM] |
| --- | --- | --- | --- | --- | --- | --- | --- | --- | --- | --- | --- | --- | --- | --- | --- | --- | --- | --- | --- |
| N#Cc1ccc(Nc2nccc(C(C#N)c3ccc(-c4ccccc4)cc3)n2)cc1 (racemic) [Compound 10a, (±)-4-((4-([1,1′-biphenyl]-4-yl(cyano)methyl)pyrimidin-2-yl)amino)benzonitrile] | > 30.8 | 2.9 ± 1.89 | > 30.8 | 30.8 ± 8.57 | > 30.8 | > 30.8 | > 30.8 | > 30.8 | ≥ 12.6 |  |  |  |  |  |  |  |  |  |  |
| N#Cc1ccc(Nc2nccc(C(C#N)c3ccc(-c4ccccc4)c(F)c3)n2)cc1 (racemic) [Compound 10b, (±)-4-((4-(cyano(2-fluoro-[1,1′-biphenyl]-4-yl)methyl)pyrimidin-2-yl)amino)benzonitrile] | ≥ 27.3 | 4.96 ± 0.56 | > 27.3 | 27.3 ± 5.85 | > 27.3 | > 27.3 | > 27.3 | > 27.3 | 9.29 ± 1.37 | 0.46 ± 0.162 |  |  |  |  |  |  |  |  |  |
| N#Cc1ccc(Nc2nccc(C(C#N)c3ccc(-c4ccccc4)cc3F)n2)cc1 (racemic) [Compound 10c, (±)-4-((4-(cyano(3-fluoro-[1,1′-biphenyl]-4-yl)methyl)pyrimidin-2-yl)amino)benzonitrile] | ≥ 10.3 | 0.33 ± 0.07 | 10.3 ± 0.85 | 23.8 ± 4.48 | > 23.8 | 6.37 ± 0.78 | > 23.8 | > 23.8 | 1.69 ± 0.17 | 0.062 ± 0.024 |  |  |  |  |  |  |  |  |  |
| Cc1ccccc1-c1ccc(C(C#N)c2ccnc(Nc3ccc(C#N)cc3)n2)c(F)c1 (racemic) [Compound 10d, (±)-4-((4-(cyano(3-fluoro-2′-methyl-[1,1′-biphenyl]-4-yl)methyl)pyrimidin-2-yl)amino)benzonitrile] | 3.67 ± 0.54 | 0.43 ± 0.21 | 8.14 ± 1.82 | 30.1 ± 1.94 | > 30.1 | 4.89 ± 1.07 | > 30.1 | > 30.1 | 2.5 ± 0.33 | 0.074 ± 0.024 |  |  |  |  |  |  |  |  |  |
| Cc1cccc(-c2ccc(C(C#N)c3ccnc(Nc4ccc(C#N)cc4)n3)c(F)c2)c1 (racemic) [Compound 10e, (±)-4-((4-(cyano(3-fluoro-3′-methyl-[1,1′-biphenyl]-4-yl)methyl)pyrimidin-2-yl)amino)benzonitrile] | 9.14 ± 3.61 | 0.43 ± 0.07 | > 26.9 | 26.9 ± 3.78 | > 26.9 | > 26.9 | > 26.9 | > 26.9 | 3.59 ± 1.03 | 0.101 ± 0.059 |  |  |  |  |  |  |  |  |  |
| Cc1ccc(-c2ccc(C(C#N)c3ccnc(Nc4ccc(C#N)cc4)n3)c(F)c2)cc1 (racemic) [Compound 10f, (±)-4-((4-(cyano(3-fluoro-4′-methyl-[1,1′-biphenyl]-4-yl)methyl)pyrimidin-2-yl)amino)benzonitrile] | 6.12 ± 1.62 | 0.43 ± 0.09 | 8.08 ± 2.74 | 30.9 ± 2.76 | > 30.9 | 9.27 ± 1.14 | > 30.9 | > 30.9 | 2.55 ± 0.17 | 0.093 ± 0.051 |  |  |  |  |  |  |  |  |  |
| COc1ccccc1-c1ccc(C(C#N)c2ccnc(Nc3ccc(C#N)cc3)n2)c(F)c1 (racemic) [Compound 10g, (±)-4-((4-(cyano(3-fluoro-2′-methoxy-[1,1′-biphenyl]-4-yl)methyl)pyrimidin-2-yl)amino)benzonitrile] | 4.27 ± 0.46 | 0.61 ± 0.16 | 9.78 ± 1.6 | 30.1 ± 2.31 | > 30 | 7.79 ± 1.67 | > 30 | > 30 | 3.66 ± 0.19 | 0.233 ± 0.125 |  |  |  |  |  |  |  |  |  |
| COc1cccc(-c2ccc(C(C#N)c3ccnc(Nc4ccc(C#N)cc4)n3)c(F)c2)c1 (racemic) [Compound 10h, (±)-4-((4-(cyano(3-fluoro-3′-methoxy-[1,1′-biphenyl]-4-yl)methyl)pyrimidin-2-yl)amino)benzonitrile] | 8.57 ± 1.26 | 1.5 ± 0.24 | > 30.7 | 30.7 ± 2.09 | > 30.7 | > 30.7 | > 30.7 | > 30.7 | 6.16 ± 1.47 | 0.219 ± 0.171 |  |  |  |  |  |  |  |  |  |
| COc1ccc(-c2ccc(C(C#N)c3ccnc(Nc4ccc(C#N)cc4)n3)c(F)c2)cc1 (racemic) [Compound 10i, (±)-4-((4-(cyano(3-fluoro-4′-methoxy-[1,1′-biphenyl]-4-yl)methyl)pyrimidin-2-yl)amino)benzonitrile] | 31.6 ± 7.35 | 0.51 ± 0.42 | 27 ± 3 | 183 | > 183 | 8.57 ± 1.21 | 52.5 | 50.1 ± 6.52 | 5.51 ± 1.06 |  |  |  |  |  |  |  |  |  |  |
| N#Cc1ccc(Nc2nccc(C(C#N)c3ccc(-c4ccccc4F)cc3F)n2)cc1 (racemic) [Compound 10j, (±)-4-((4-(cyano(2′,3-difluoro-[1,1′-biphenyl]-4-yl)methyl)pyrimidin-2-yl)amino)benzonitrile] | 6.06 ± 2.46 | 0.21 ± 0.05 | 3.93 ± 0.65 | 27.9 ± 3.56 | > 27.9 | 3.4 ± 0.48 | > 27.9 | > 27.9 | 1.03 ± 0.17 | 0.058 ± 0.032 |  |  |  |  |  |  |  |  |  |
| N#Cc1ccc(Nc2nccc(C(C#N)c3ccc(-c4cccc(F)c4)cc3F)n2)cc1 (racemic) [Compound 10k, (±)-4-((4-(cyano(3,3′-difluoro-[1,1′-biphenyl]-4-yl)methyl)pyrimidin-2-yl)amino)benzonitrile] | 9.29 ± 0.57 | 0.56 ± 0.19 | > 30.7 | 30.7 ± 1.79 | > 30.7 | 9.15 ± 0.87 | > 30.7 | > 30.7 | 3.36 ± 0.4 | 0.188 ± 0.172 |  |  |  |  |  |  |  |  |  |
| N#Cc1ccc(Nc2nccc(C(C#N)c3ccc(-c4ccc(F)cc4)cc3F)n2)cc1 (racemic) [Compound 10l, (±)-4-((4-(cyano(3,4′-difluoro-[1,1′-biphenyl]-4-yl)methyl)pyrimidin-2-yl)amino)benzonitrile] | 6.9 ± 1.76 | 0.18 ± 0.16 | 6.87 ± 1.17 | 25.6 ± 3.58 | > 25.6 | 5.1 ± 0.51 | > 25.6 | > 25.6 | 0.98 ± 0.13 |  |  |  |  |  |  |  |  |  |  |
| N#Cc1ccc(Nc2nccc(C(C#N)c3ccc(-c4ccccc4Cl)cc3F)n2)cc1 (racemic) [Compound 10m, (±)-4-((4-((2′-chloro-3-fluoro-[1,1′-biphenyl]-4-yl)(cyano)methyl)pyrimidin-2-yl)amino)benzonitrile] | 5.61 ± 1.51 | 0.28 ± 0.04 | 5.34 ± 0.93 | 22.5 ± 4.7 | > 22.5 | 4.53 ± 1.47 | > 22.5 | > 22.5 | 2.43 ± 0.5 | 0.074 ± 0.024 |  |  |  |  |  |  |  |  |  |
| N#Cc1ccc(Nc2nccc(C(C#N)c3ccc(-c4cccc(Cl)c4)cc3F)n2)cc1 (racemic) [Compound 10n, (±)-4-((4-((3′-chloro-3-fluoro-[1,1′-biphenyl]-4-yl)(cyano)methyl)pyrimidin-2-yl)amino)benzonitrile] | 8.31 ± 1.2 | 0.39 ± 0.1 | 7.2 ± 0.89 | 27.6 ± 4.05 | > 27.6 | 9.19 ± 2.05 |  | > 27.6 | 2.67 ± 0.21 | 0.171 ± 0.132 |  |  |  |  |  |  |  |  |  |
| N#Cc1ccc(Nc2nccc(C(C#N)c3ccc(-c4ccc(Cl)cc4)cc3F)n2)cc1 (racemic) [Compound 10o, (±)-4-((4-((4′-chloro-3-fluoro-[1,1′-biphenyl]-4-yl)(cyano)methyl)pyrimidin-2-yl)amino)benzonitrile] | 5.28 ± 1.29 | 0.18 ± 0.14 | 7.32 ± 0.87 | 27.5 ± 7.3 | > 27.5 | 7.49 ± 1.64 | > 27.5 | > 27.5 | 1.5 ± 0.28 |  |  |  |  |  |  |  |  |  |  |
| N#Cc1ccc(Nc2nccc(C(C#N)c3ccc(-c4ccc(C#N)cc4)cc3F)n2)cc1 (racemic) [Compound 10p, (±)-4′-(cyano(2-((4-cyanophenyl)amino)pyrimidin-4-yl)methyl)-3′-fluoro-[1,1′-biphenyl]-4-carbonitrile] | 1.21 ± 0.21 | 0.027 ± 0.015 | 0.9 ± 0.27 | 36.4 | > 36.4 | 0.87 ± 0.23 |  | 9.81 ± 1.3 | 0.17 ± 0.03 | 0.059 ± 0.034 |  |  |  |  |  |  |  |  |  |
| Nc1ccn([C@@H]2CS[C@H](CO)O2)c(=O)n1 [Compound 3TC, lamivudine, reference compound] |  |  |  |  |  |  |  |  |  |  | 1.96 ± 0.29 | 7.88 ± 3.15 | 3.98 ± 0.76 | > 87.2 | 5.5 ± 1.31 | 4.74 ± 1.31 | 2.69 ± 0.87 | 3.42 ± 0.95 | 5.06 ± 0.9 |
